PubChem BioAssay AID1996
≈ marks a conversion by molar mass, not a printed value.

Conditions: buffer; pH 7.4; 200.0 µM

Q: For `CC(C)C(=O)Nc1ccc(NC(=O)c2ccc3c(c2)OCO3)cc1`, which solubility kinetic is on record?
A: Its solubility kinetic is under 0.3 µg/mL.

Q: With `Cc1ccc(C(=O)NCC(c2ccc(F)cc2)N2CCOCC2)cc1` (stereo not given) as the molecule, how does the solubility kinetic read?
A: Its solubility kinetic is 44.4 µg/mL (≈ 130 µM).

Q: With `O=C(NNC(=O)C1CCN(S(=O)(=O)c2ccccc2)CC1)c1ccccc1O` as the molecule, how does the solubility kinetic read?
A: Its solubility kinetic is over 60.5 µg/mL.

Q: With `Cc1cc(C(=O)NC2CCCCC2)on1` as the molecule, how does the solubility kinetic read?
A: The solubility kinetic was over 31.2 µg/mL.

Q: For `COc1ccc(C(=O)c2nc3ccccc3n2C(C)C)cc1OC`, which solubility kinetic is on record?
A: The solubility kinetic was 46.1 µg/mL (≈ 142 µM).

Q: With `CCc1ccc(C(C)NC(=O)c2ccncc2)cc1` (stereo not given) as the molecule, how does the solubility kinetic read?
A: The solubility kinetic was over 38.1 µg/mL.

Q: Which solubility kinetic does the source give for `Cc1ccc(C(=O)OCC(=O)NC2CCCCC2)o1` here?
A: Its solubility kinetic is over 39.8 µg/mL.

Q: Which solubility kinetic does the source give for `CCOc1ccc(/C=C(\C#N)C(=O)NC2CC2)c(OCC)c1` here?
A: The solubility kinetic was 4.8 µg/mL (≈ 16 µM).

Q: Which solubility kinetic does the source give for `Clc1ccccc1CN1CCSCC1` here?
A: Its solubility kinetic is 1.6 µg/mL (≈ 7.02 µM).

Q: Which solubility kinetic does the source give for `O=C(CN1CCCc2ccccc21)NCCc1ccc(F)cc1` here?
A: The solubility kinetic was over 46.9 µg/mL.

Q: With `COC(=O)c1cc(COC(=O)CNC(=O)c2ccc(Br)cc2)oc1C` as the molecule, how does the solubility kinetic read?
A: Its solubility kinetic is 6.8 µg/mL (≈ 16.6 µM).

Q: For `CCN(C(=O)c1ccc(Br)cc1)c1ccccc1`, which solubility kinetic is on record?
A: Its solubility kinetic is 32.4 µg/mL (≈ 107 µM).

Q: For `Cc1cccc(NC(=S)Nc2cccc3ccccc23)c1`, which solubility kinetic is on record?
A: Its solubility kinetic is 3.8 µg/mL (≈ 13 µM).

Q: Which solubility kinetic does the source give for `O=C(COC(=O)c1cc(Cl)cc(Cl)c1)NCc1ccco1` here?
A: The solubility kinetic was 28.4 µg/mL (≈ 86.5 µM).

Q: With `COc1ccc(-c2cc(C(=O)NCc3ccco3)c3ccccc3n2)cc1OC` as the molecule, how does the solubility kinetic read?
A: The solubility kinetic was 1.7 µg/mL (≈ 4.38 µM).

Q: Which solubility kinetic does the source give for `Cc1nc2ccccc2c(=O)n1-c1cc([N+](=O)[O-])cc([N+](=O)[O-])c1` here?
A: Its solubility kinetic is 17.1 µg/mL (≈ 52.4 µM).

Q: For `O=C(O)CCC(=O)N(Cc1ccccc1)Cc1ccccc1`, which solubility kinetic is on record?
A: The solubility kinetic was over 44.6 µg/mL.

Q: With `Cc1ccc(C)c(NC(=O)CSc2nnc(-c3ccncc3)o2)c1` as the molecule, how does the solubility kinetic read?
A: Its solubility kinetic is over 51.1 µg/mL.

Q: Which solubility kinetic does the source give for `CN(C)Cc1nc2ccccc2c(=O)n1CC#N` here?
A: The solubility kinetic was over 36.3 µg/mL.

Q: For `Cc1ccccc1CNC(=O)COc1ccccc1`, which solubility kinetic is on record?
A: Its solubility kinetic is over 38.3 µg/mL.

Q: With `O=C(NCC1CCN(S(=O)(=O)c2ccccc2)CC1)Nc1ccccc1` as the molecule, how does the solubility kinetic read?
A: Its solubility kinetic is 3.6 µg/mL (≈ 9.64 µM).

Q: With `Cc1ccccc1NC(=S)Nc1cccc2cnccc12` as the molecule, how does the solubility kinetic read?
A: Its solubility kinetic is 34.2 µg/mL (≈ 117 µM).

Q: For `N#Cc1c(-c2ccccc2)nc(SCc2ccc(Cl)cc2)[nH]c1=O`, which solubility kinetic is on record?
A: The solubility kinetic was 51.9 µg/mL (≈ 147 µM).

Q: Which solubility kinetic does the source give for `CCCC(C)NC(=O)Cc1ccccc1` (stereo not given) here?
A: Its solubility kinetic is 30 µg/mL (≈ 146 µM).

Q: For `CC(=O)C1=C(O)C(=O)N(c2ccc(O)cc2)C1c1ccccc1` (stereo not given), which solubility kinetic is on record?
A: Its solubility kinetic is over 46.4 µg/mL.

Q: For `Cc1cc(F)ccc1NC(=S)NCCc1ccccc1`, which solubility kinetic is on record?
A: Its solubility kinetic is 22.5 µg/mL (≈ 78 µM).

Q: Which solubility kinetic does the source give for `O=S(=O)(c1ccc(-c2ccon2)s1)N1CCN(c2ccccn2)CC1` here?
A: The solubility kinetic was 1.1 µg/mL (≈ 2.92 µM).

Q: For `Cc1cc(-c2onc(C)c2C(=O)O)no1`, which solubility kinetic is on record?
A: Its solubility kinetic is over 31.2 µg/mL.

Q: Which solubility kinetic does the source give for `COc1ccc2cc(C#N)c(Nc3cccc(F)c3)nc2c1` here?
A: The solubility kinetic was under 0.2 µg/mL.

Q: With `O=C(NCC(c1ccco1)N1CCCC1)c1cc(S(=O)(=O)N2CCCCC2)ccc1Cl` (stereo not given) as the molecule, how does the solubility kinetic read?
A: The solubility kinetic was over 69.9 µg/mL.

Q: With `COc1ccc([N+](=O)[O-])cc1NC(=O)Nc1ccc(OC)c(OC)c1` as the molecule, how does the solubility kinetic read?
A: The solubility kinetic was 0.3 µg/mL (≈ 0.864 µM).

Q: With `O=C(c1cc(O)c(O)c([N+](=O)[O-])c1)c1ccccc1F` as the molecule, how does the solubility kinetic read?
A: Its solubility kinetic is over 41.6 µg/mL.

Q: For `Cc1c(OCC(F)(F)F)ccnc1CS(=O)c1nc2ccccc2[nH]1` (stereo not given), which solubility kinetic is on record?
A: The solubility kinetic was over 55.4 µg/mL.

Q: Which solubility kinetic does the source give for `O=C1CCC(C(=O)NCc2ccccc2)N1` (stereo not given) here?
A: The solubility kinetic was 30.8 µg/mL (≈ 141 µM).

Q: Which solubility kinetic does the source give for `CC12COC3(C(=O)Nc4ccccc4)CC1CCC32C` (stereo not given) here?
A: The solubility kinetic was over 40.7 µg/mL.

Q: Which solubility kinetic does the source give for `CC(=O)N1CCc2ccc(S(=O)(=O)N3CCc4ccccc43)cc21` here?
A: Its solubility kinetic is 0.5 µg/mL (≈ 1.46 µM).

Q: Which solubility kinetic does the source give for `Cc1ccc2c(c1)c1c(n2CC(O)CN2CCC(C)CC2)CCCC1` (stereo not given) here?
A: The solubility kinetic was 44.4 µg/mL (≈ 130 µM).

Q: Which solubility kinetic does the source give for `O=C(COC(=O)c1ccc(O)cc1)Nc1ccc2c(c1)OCO2` here?
A: Its solubility kinetic is 15.6 µg/mL (≈ 49.5 µM).

Q: Which solubility kinetic does the source give for `CN1C(=O)NC(c2ccccc2Cl)C2=C1CC(C)(C)CC2=O` (stereo not given) here?
A: Its solubility kinetic is over 47.8 µg/mL.

Q: Which solubility kinetic does the source give for `O=C(/C=C/c1ccccc1)OCC(=O)N1CCCC1` here?
A: Its solubility kinetic is over 38.9 µg/mL.

Q: Which solubility kinetic does the source give for `O=C(COC(=O)CNS(=O)(=O)c1cc(C(F)(F)F)ccc1Cl)NC1CC1` here?
A: The solubility kinetic was over 62.2 µg/mL.

Q: Which solubility kinetic does the source give for `CC(=O)c1c(C)[nH]c(C(=O)Nc2ccccn2)c1C` here?
A: The solubility kinetic was over 38.6 µg/mL.

Q: Which solubility kinetic does the source give for `Cc1ccc(Cn2cccc(NS(C)(=O)=O)c2=O)cc1` here?
A: The solubility kinetic was over 43.9 µg/mL.

Q: With `O=C(Nc1ccc(C(F)(F)F)cn1)Nc1cccs1` as the molecule, how does the solubility kinetic read?
A: Its solubility kinetic is 0.8 µg/mL (≈ 2.78 µM).

Q: With `Cc1ccccc1NC(=O)NC1(C(=O)NCc2ccco2)CCCCC1` as the molecule, how does the solubility kinetic read?
A: The solubility kinetic was 8.5 µg/mL (≈ 23.9 µM).

Q: Which solubility kinetic does the source give for `COc1ccc(CCC(=O)NCc2cn3ccccc3n2)cc1` here?
A: The solubility kinetic was over 46.4 µg/mL.

Q: For `Cc1cc(=O)oc2cc(OCC(=O)NCC3CCC(C(=O)O)CC3)ccc12` (stereo not given), which solubility kinetic is on record?
A: The solubility kinetic was over 56 µg/mL.

Q: Which solubility kinetic does the source give for `CC(=O)Nc1ccc(C(=O)CN2C(=O)NC3(CCCCCC3)C2=O)c(F)c1` here?
A: The solubility kinetic was 33.9 µg/mL (≈ 90.3 µM).

Q: With `COC(=O)C1CCC(=S)N1C(=O)c1ccccc1` (stereo not given) as the molecule, how does the solubility kinetic read?
A: The solubility kinetic was over 39.5 µg/mL.

Q: Which solubility kinetic does the source give for `CCc1ccc(CN2CCN(c3ncccn3)CC2)cc1` here?
A: Its solubility kinetic is 29.9 µg/mL (≈ 106 µM).

Q: With `COc1ccc(-c2cc(C(=O)OCC(=O)N3CCOCC3)c3ccccc3n2)cc1` as the molecule, how does the solubility kinetic read?
A: The solubility kinetic was 26.3 µg/mL (≈ 64.7 µM).

Q: Which solubility kinetic does the source give for `Cc1ccc(C)c(NC(=S)N2CCCC2)c1` here?
A: Its solubility kinetic is over 35.2 µg/mL.

Q: Which solubility kinetic does the source give for `CCC(Oc1ccccc1)C(=O)Nc1ccccc1N1CCCC1` (stereo not given) here?
A: Its solubility kinetic is 7.9 µg/mL (≈ 24.4 µM).

Q: For `Cc1ccc(C)c(NC(=O)CN(C)C(=O)CC2OC(=O)c3ccccc32)c1` (stereo not given), which solubility kinetic is on record?
A: Its solubility kinetic is over 55 µg/mL.

Q: With `O=C(NC12CC3CC(CC(C3)C1)C2)c1cccnc1Cl` as the molecule, how does the solubility kinetic read?
A: Its solubility kinetic is 22.3 µg/mL (≈ 76.7 µM).

Q: For `CN(C)C(=O)c1cc(C(=O)c2ccc(F)cc2Cl)c[nH]1`, which solubility kinetic is on record?
A: The solubility kinetic was over 44.2 µg/mL.

Q: Which solubility kinetic does the source give for `CCc1nnc(NC(=O)c2cc(Cl)ccn2)s1` here?
A: The solubility kinetic was over 40.3 µg/mL.

Q: Which solubility kinetic does the source give for `CC(C)(C)c1ccc(Oc2ccc(NC(=O)c3cccs3)cn2)cc1` here?
A: Its solubility kinetic is 1.3 µg/mL (≈ 3.69 µM).

Q: For `Cc1nc(CSc2nnc(N)s2)cs1`, which solubility kinetic is on record?
A: Its solubility kinetic is over 36.7 µg/mL.

Q: For `O=C(CSc1nc2ccccc2c(=O)n1CCCN1CCOCC1)NCCc1ccccc1`, which solubility kinetic is on record?
A: The solubility kinetic was 64.3 µg/mL (≈ 138 µM).
